Four molecules from paper PMC9994261 (Cell, 2023) can be followed below.

The structures appear in SMILES notation. Values after ≈ are worked out from the molar mass of the structure shown. Values joined by “and” are separate entries in the source; they are usually repeats but may differ in a detail not shown here. Identical values can stand only once. Like-named read-outs stand apart in the source and are kept apart here.

Experiment [1] has as its system Mtb H37Rv SEQ-9 resistant mutants. It counts as cell-based, Mycobacterium tuberculosis.
The subject of experiment [2] is Mtb clinical strains. The experiment can be described thus: microbe, parasite or virus in culture. In kind it is cell-based. To be noted: Mycobacterium tuberculosis, read-out: MIC against Mtb clinical strain.

As for `CC(=O)NC[C@H]1CN(c2ccc(N3CCOCC3)c(F)c2)C(=O)O1` [Linezolid], the “Growth inhibition (MIC80)” value in experiment [1] was 0.92 µM and 0.95 µM and 1.14 µM and 0.80 µM and 0.79 µM.
With `CON=C1CC(C)OC(OC2C(C)CC(C)(OC(=O)NC(C)(C)CNS(=O)(=O)c3ccccc3)C(=O)C(C)C(OC(=O)CC(C)C)C(C)C(C(C)COC3OC(C)C(O)C(OC)C3OC)OC(=O)C(C)C(OC3CC(C)N(C)CC(C)O3)C2C)C1O` (stereo not drawn) [SEQ-9], the MIC in experiment [2] (KMA1354-Modern) amounted to 0.9 µM (≈ 1.12 µg/mL); in experiment [2] (KMA3899-Ancient), 1.4 µM (≈ 1.74 µg/mL); in experiment [2] (KMA4244-Modern), 1.4 µM (≈ 1.74 µg/mL); in experiment [2] (KMA4439-Modern), 1.4 µM (≈ 1.74 µg/mL); in experiment [2] (KMA5282-Modern), 0.6 µM (≈ 0.746 µg/mL); in experiment [2] (KMA5319-Modern), 0.7 µM (≈ 0.87 µg/mL).
`COc1nc2ccc(Br)cc2cc1[C@@H](c1ccccc1)[C@@](O)(CCN(C)C)c1cccc2ccccc12` [BDQ, Bedaquiline]: the “Growth inhibition (MIC80)” value in experiment [1] was 0.044 µM and 0.042 µM and 0.036 µM.
Regarding `CC[C@H]1OC(=O)[C@H](C)[C@@H](O[C@H]2C[C@@](C)(OC)[C@@H](O)[C@H](C)O2)[C@H](C)[C@@H](O[C@@H]2O[C@H](C)C[C@H](N(C)C)[C@H]2O)[C@](C)(OC)C[C@@H](C)C(=O)[C@H](C)[C@@H](O)[C@]1(C)O` [Clarithromycin], the “Growth inhibition @ 30µM” value in experiment [1] (30 µM) is 55% and 70%.
